From the supplement of paper PMC11061612

Legend:
[1] = tested on: KYM-1 (Rhabdomyosarcoma); assay: Bliss excess, mean over the matrix (fraction); higher = more synergy
Procedure, shortened: (§1)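 Cell lines in DMEM/F12 or RPMI with 10% FBS were plated in 1536-well plates, held 24 hours at 37°C, 5% CO2, then given two-drug dose matrices for 72 hours (DMSO typically 0.2%). Viability was read by CellTiter-Glo 2.0 luminescence and scaled as inhibition from 0 (vehicle wells) to 1 (blank wells). Combination Emax is the second-highest inhibition in the matrix; Bliss excess is observed combination effect minus expected EA + EB − EA·EB, EA and EB being single-agent effects.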

[2] = tested on: NCI-H196 (Small Cell Lung Carcinoma); assay: as above
Procedure, shortened: as §1

[3] = tested on: Calu-6 (Non-Small Cell Lung Carcinoma); assay: as above
Procedure, shortened: as §1

[4] = tested on: RL95-2 (Endometrial Carcinoma); assay: as above
Procedure, shortened: as §1

[5] = tested on: HCC-44 (Lung Adenocarcinoma); assay: as above
Procedure, shortened: as §1

[6] = tested on: HCC-44 (Lung Adenocarcinoma); assay: combination Emax (second highest fraction inhibited in the dose matrix, 72 h); higher = more inhibition; extreme values may be limits of the assay
Procedure, shortened: as §1
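Wherever Bliss excess, mean over the matrix is given: after 72 h of two-drug dosing.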

Structure (SMILES)	Bliss excess [1]	Bliss excess [2]	Bliss excess [3]	Bliss excess [4]	Bliss excess [5]	combination Emax [6]
CN(C)CCCOc1ccc(-c2ccc3ncc4c(c3c2)n(C2CCOCC2)c(=O)n4C)cn1 [AZD0156] + O=C(c1cc(Cc2n[nH]c(=O)c3ccccc23)ccc1F)N1CCN(C(=O)C2CC2)CC1 [Olaparib] (first compound max 3 µM, partner max 3 µM)	0.185	-0.0505	0.0096	0.11	0.0947	0.456
C=CCn1c(=O)c2cnc(Nc3ccc(N4CCN(C)CC4)cc3)nc2n1-c1cccc(C(C)(C)O)n1 [AZD1775] + C1CN(CCC1(C(=O)N[C@@H](CCO)C2=CC=C(C=C2)Cl)N)C3=NC=NC4=C3C=CN4 [Capivasertib] (first compound max 3 µM, partner max 3 µM)	-0.0084	-0.118	0.0034	0.0093	-0.0109	0.844
COc1nnc2ccc(N3CCC(c4ccc(OCCN5CCN(C)C(=O)[C@H]5C)cc4)CC3)nn12 [AZD5153] + C=CCn1c(=O)c2cnc(Nc3ccc(N4CCN(C)CC4)cc3)nc2n1-c1cccc(C(C)(C)O)n1 [AZD1775] (first compound max 1 µM, partner max 1 µM)	-0.0249	-0.0574	-0.0511	0.0344	-0.0787	0.63
COc1nnc2ccc(N3CCC(c4ccc(OCCN5CCN(C)C(=O)[C@H]5C)cc4)CC3)nn12 [AZD5153] + CC1(C)CCC(CN2CCN(c3ccc(C(=O)NS(=O)(=O)c4ccc(NCC5CCOCC5)c([N+](=O)[O-])c4)c(Oc4cnc5[nH]ccc5c4)c3)CC2)=C(c2ccc(Cl)cc2)C1 [Venetoclax] (first compound max 1 µM, 7x7, partner max 1 µM)	-0.0124	-0.0351	-0.0949	-0.0558	-0.0395	0.615
COc1nnc2ccc(N3CCC(c4ccc(OCCN5CCN(C)C(=O)[C@H]5C)cc4)CC3)nn12 [AZD5153] + CCN(CCO)CCCOc1ccc2c(Nc3cc(CC(=O)Nc4cccc(F)c4)[nH]n3)ncnc2c1 [AZD2811] (first compound max 1 µM, 7x7, partner max 1 µM)	-0.0682	-0.0285	-0.0563	-0.154	-0.0338	0.617
COc1nnc2ccc(N3CCC(c4ccc(OCCN5CCN(C)C(=O)[C@H]5C)cc4)CC3)nn12 [AZD5153] + C[C@@H]1COCCN1C2=NC(=NC(=C2)C3(CC3)[S@](=N)(=O)C)C4=C5C=CNC5=NC=C4 [AZD6738] (first compound max 1 µM, 7x7, partner max 10 µM)	-0.0398	0.036	-0.0567	0.0017	0.0139	0.726
CC1(C)CCC(CN2CCN(c3ccc(C(=O)NS(=O)(=O)c4ccc(NCC5CCOCC5)c([N+](=O)[O-])c4)c(Oc4cnc5[nH]ccc5c4)c3)CC2)=C(c2ccc(Cl)cc2)C1 [Venetoclax] + C[C@@H]1COCCN1C2=NC(=NC(=C2)C3(CC3)[S@](=N)(=O)C)C4=C5C=CNC5=NC=C4 [AZD6738] (first compound max 1 µM, 7x7, partner max 10 µM)	-0.0119	0.0092	-0.0261	-0.0361	–	–
CC1(C)CCC(CN2CCN(c3ccc(C(=O)NS(=O)(=O)c4ccc(NCC5CCOCC5)c([N+](=O)[O-])c4)c(Oc4cnc5[nH]ccc5c4)c3)CC2)=C(c2ccc(Cl)cc2)C1 [Venetoclax] + C[C@@H](Nc1cc(F)cc(F)c1)c1cc(C(=O)N(C)C)cc2c(=O)cc(N3CCOCC3)oc12 [AZD8186] (first compound max 1 µM, 7x7, partner max 3 µM)	-0.0138	-0.03	-0.0446	-0.0189	–	–
CC1(C)CCC(CN2CCN(c3ccc(C(=O)NS(=O)(=O)c4ccc(NCC5CCOCC5)c([N+](=O)[O-])c4)c(Oc4cnc5[nH]ccc5c4)c3)CC2)=C(c2ccc(Cl)cc2)C1 [Venetoclax] + Cc1cc2ncnn2cc1Nc1ncc2c(n1)n(C1CCOCC1)c(=O)n2C [AZD7648] (first compound max 1 µM, 7x7, partner max 10 µM)	-0.0074	-0.0385	0.0067	-0.0025	–	–
CC1(C)CCC(CN2CCN(c3ccc(C(=O)NS(=O)(=O)c4ccc(NCC5CCOCC5)c([N+](=O)[O-])c4)c(Oc4cnc5[nH]ccc5c4)c3)CC2)=C(c2ccc(Cl)cc2)C1 [Venetoclax] + Cn1cnc2c(F)c(Nc3ccc(Br)cc3Cl)c(C(=O)NOCCO)cc21 [Selumetinib] (first compound max 1 µM, 7x7, partner max 3 µM)	-0.003	-0.044	-0.0665	-0.0313	–	–
